Data reported in article PMC11989239, “Structure–Property Relationships in Novel Series of Photoswitchable Local Anesthetic Ethercaine Derivatives: Emphasis on Biological and Photophysical Properties” (International Journal of Molecular Sciences, 2025).
Where a name gives a salt, the structure may show the parent alone. Read-outs that look alike come from different tables or passages of the source.

Legend:
[1] = Solubility in water / aqueous solutions; format: physicochemical
[2] = Z-E isomerization half-life by UV/Vis spectrophotometry after 365 nm irradiation; format: physicochemical; details: for τ1/2 (DMSO), Z-E isomerization half-life: RT, after 365 nm 5 min; for τ1/2 (Aqueous Kolliphor ELP), Z-E isomerization half-life: aqueous 4% Kolliphor ELP solution
Description: As one of the main physicochemical properties of photopharmacological agents, the Z-E half-life was investigated, which determines the stability of the Z-isomer. The Z-E half-lifes were measured using UV/Vis spectrophotometry, converting the compound to the Z-isomer by irradiating with UV light and observing the change in absorption intensity due to reverse Z-E relaxation.
Z-E isomerization half-life was determined using UV/Vis spectroscopy. Solutions were prepared and kept in the dark at RT before the experiment. First, the spectrum in the dark was registered ( PSSdark) , which corresponds to the photostationary state (PSS) with E-isomer predominance. Then, the cuvette with the solution was irradiated with UV light (λ = 365 nm) for 5 min to give the PSS with Z-isomer predominance. The corresponding spectrum was registered ( PSS365nm) . During the subsequent isomerization, the kinetics of changes in the absorption value were recorded at the wavelength of the absorption maximum corresponding to the E-isomer ( λmax(E)) . Then, lnAt/A0 values were calculated using the Equation (1):(1) lnAt/A0=lnAbsPSS(dark)−Abstime/AbsPSS(dark)−AbsPSS(365nm), where AbsPSS(dark) , AbsPSS(365nm), and Abstime are absorbance values at λmax(E) in the dark at the beginning of the experiment, after UV light (λ = 365 nm) irradiation, and at different time points from 0 to 60 min, respectively. Then, a graph was plotted depending on lnAt/A0 values from time, the trend line was calculated, and a first-order rate constant (k) for the thermal back Z-E isomerization reaction was obtained as the slope of the trend line.
For a first-order reaction, half-life t1/2 can be calculated using the Equation (2):(2) t1/2=ln2/k

[3] = In vitro cytotoxicity, MTT test, 24 h incubation; format: cell-based, human; details: human, dermal fibroblast cells (DF2), DF2 fibroblasts
Description: The culture of dermal fibroblast cells (DF2) was obtained from the collection of the Institute of Cytology of the Russian Academy of Sciences (Saint Petersburg, Russia). The cells were cultured in plastic vials with a cell growth surface of 25 cm^2 (Costar, Richmond, VA, USA) on DMEM/F12 medium with the addition of L-glutamine and 10% fetal bovine serum (FBS) (PanEco, Moscow, Russia). The cells were cultured at 37 °C in a humid atmosphere with a content of 5% CO2 (Binder CO2 incubator, Germany). Cell lines from 3 to 7 passages were used in the work. To conduct experiments to evaluate the cytotoxicity of compounds, cells were sieved into 96-well culture plates at a concentration of 10^5 cells per ml, incubated at 37 °C (humidified atmosphere, 5% carbon dioxide) for 24–28 h. Further, 50 µL of the studied substances was added. The cells were incubated with the compounds for 24 h at 37 °C. Next, the cytotoxic effect of the substances was evaluated by a colorimetric method using an MTT test and visually, using an inverted microscope. The criterion for evaluating the specific activity of the compound was the value of IC50, the concentration at which 50% death of culture cells was noted.

rabbit eye cornea = tested on: rabbit eye cornea; set-up: method as in PMID 35628162; details: 2% solution of lidocaine, obtained previously, cited from earlier work; for Local Anesthetic Activity (Regnier Index, Min—13, Max—1300) Under Irradiation (λ = 365 nm): UV light irradiation

τ1/2 (DMSO), Z-E isomerization half-life [2] | τ1/2 (Aqueous Kolliphor ELP), Z-E isomerization half-life [2] | solubility ([1]; water) | Compound | Solubility in aqueous solutions (in words) ([1]; seen in the cytotoxicity test) | IC50 at 24 h [3] | Local Anesthetic Activity (Regnier Index, Min—13, Max—1300) Under Irradiation (λ = 365 nm) (rabbit eye cornea; listed as lidocaine) | Local Anesthetic Activity (Regnier Index, Min—13, Max—1300) Under Irradiation (λ = 365 nm) (rabbit eye cornea) | Local Anesthetic Activity (Regnier Index, Min—13, Max—1300) In the Dark (rabbit eye cornea; listed as lidocaine) | Local Anesthetic Activity (Regnier Index, Min—13, Max—1300) In the Dark (rabbit eye cornea)
1830 min | 31 min | – | O=C(CN1CCOCC1)Nc1ccc(/N=N/c2ccccc2)cc1 [Compound 2] | poor solubility in aqueous solutions at concentrations above 200 µM | > 200 µM | – | – | – | –
12 min | 13 min | > 100 mg/mL | c1csc(/N=N/c2ccc(OCCN3CCOCC3)cc2)n1 [Compound 25a, 2-(4-(2-(N-morpholino)-ethoxy)-phenylazo)-thiazole hydrochloride] | – | 200 µM | – | – | – | –
– | – | – | CCN(CC)CC(=O)Nc1c(C)cccc1C [Lidocaine 2%, Lidocaine] | – | > 5000 µM | 469 ± 37 | 469 ± 37 (n = 8) | 451 ± 40 | 451 ± 40 (n = 8)
